Values joined by “and” are separate entries in the source; they are usually repeats but may differ in a detail not shown here. Identical values can stand only once.
Columns and labels:
[1] = tested on: harvested rat small intestinal segments: Duodenum; assay: Ussing chamber mucosal to serosal transport across rat duodenum; format: in vitro ADME; details: 5 mg/ml of DTPA in HEPES Buffer
Experimental: (§1) The primary objective of these in vitro studies was to determine a formulation containing permeation enhancers/other additives that achieved maximum transport of DTPA from mucosal to serosal side of the intestine. The mucosal to serosal absorption of DTPA (Zinc/Calcium) was measured in vitro across harvested rat intestinal segments and colon, in an EasyMount Ussing System (Physiological Instruments Inc., CA, Item #EM-CSYS-8). The Ussing chamber consists of two diffusion chambers, a heating block for temperature control, needle valves for gas flow adjustment and gas lift stirring, and Ag/AgCl voltage and current electrodes for measuring transepithelial voltage and for passing current. Representative sections of the harvested rat small intestinal segments (jejunum, duodenum, and ileum) and the rat colon were mounted on sliders placed between the chambers, and DTPA (Zinc/Calcium) transport across the sections was monitored. Aliquots of sample solution were removed from the ‘serosal’ side at 30 min intervals and analyzed by high performance liquid chromatography (HPLC). The change in mucosal to serosal transport of DTPA (Zinc/Calcium) in the presence of different permeation enhancers was determined.
(§2) Zn-DTPA and Ca-DTPA was dissolved in HEPES buffer (VWR, Brisbane, Calif.), with or without additives, at the predetermined drug concentrations. […]

[2] = Bioavailability study after liquid dose of radiolabeled DTPA (14C) in male Sprague-Dawley rats (SRI Study B230-06); format: in vivo; details: for AUC0→last Mean ± SD / AUC0→last: 16.38 mg-equiv DTPA/Kg
Experimental: The objective of this study was to determine the oral bioavailability of Ca-DTPA using radioactive ^14C-DTPA tracer for detection in male Sprague Dawley rats after oral administration in several different formulations. After oral gavage of Ca-DTPA or DTPA (free acid) in sterile water, the oral bioavailability of DTPA is estimated to be about 7% in these two treatment groups. […] In Group 7, which also was administered DTPA in 20% Labrasol (+Quinidine pretreatment), the mean bioavailability was 10%, but this group had greater interindividual variability than seen in the other treatment groups.

[3] = tested on: harvested rat small intestinal segments: Jejunum; assay: Ussing chamber mucosal to serosal transport across rat jejunum; format: in vitro ADME
Experimental: as §1
Zn-DTPA and Ca-DTPA was dissolved in HEPES buffer (VWR, Brisbane, Calif.), with or without additives, at the predetermined drug concentrations. HEPES buffer was used as the base mucosal and serosal fluid. Before initiating the experiment, 5 ml of HEPES buffer was added to each of the two chambers (mucosal and serosal) and was allowed to equilibrate for 20 min. Next, the mucosal buffer was replaced by the appropriate formulation to be tested and the experiment was initiated. Aliquots (0.5 ml) were collected from the serosal side and were replaced with an equivalent amount of fresh HEPES buffer (maintained at physiological temperature). The aliquotted samples from the serosal side were analyzed by HPLC.
Owing to the expected variation in the in vitro conditions and harvested rat intestinal segments, five replicates were used per experimental condition. In order to compare data obtained from the different experiments, the apparent permeability coefficients (Papp) were calculated according to:
[formula] Where, dQ/dt is the linear appearance rate of mass in receiver compartment, C0 is the initial solute concentration in donor compartment, and A is the surface area. The higher the Papp value, the better the permeation property. The similarity of the Papp values indicates similar behavior for the two DTPA compounds.
We then evaluated transport of Zn-DTPA and Ca-DTPA through jejunum segments with and without Labrasol.
We then tested the transport of 100 mg/ml DTPA in HEPES buffer with and without added enhancers across jejunum segments; results are in Table 3.

[4] = tested on: harvested rat small intestinal segments: Ileum; assay: Ussing chamber mucosal to serosal transport across rat ileum; format: in vitro ADME; details: 5 mg/ml of DTPA in HEPES Buffer
Experimental: as §1, §2

rat colon = assay: Ussing chamber mucosal to serosal transport across rat colon; format: in vitro ADME; details: 5 mg/ml of DTPA in HEPES Buffer
Experimental: as §1, §2

## O=C([O-])CN(CCN(CC(=O)[O-])CC(=O)[O-])CCN(CC(=O)[O-])CC(=O)[O-].[Ca+2].[Na+].[Na+].[Na+] [Ca-DTPA, calcium diethylenetriaminepentaacetate]
[1]
  Papp: 1.71 ×10⁻⁶ cm/s
[2]; Group 1 IV, saline (reference)
  % Bioavailability: 100%
  % Bioavailability Mean ± SD: 100.00%
[2]; Group 1 IV, saline, last time point 3 hr
  AUC0→last Mean ± SD: 17.73 ± 0.63 Hr * ( ng/ml)
[2]; Group 1 IV, saline, last time point 3 hr, individual rats
  AUC0→last: 17.3934 Hr * ( ng/ml) and 17.34 Hr * ( ng/ml) and 18.4585 Hr * ( ng/ml)
[2]; Group 2 Oral, water, 6 hr
  AUC0→last Mean ± SD: 1.22 ± 0.05 Hr * ( ng/ml)
[2]; Group 2 Oral, water, last time point 6 hr, individual rats
  AUC0→last: 1.2411 Hr * ( ng/ml) and 1.1632 Hr * ( ng/ml) and 1.2516 Hr * ( ng/ml)
[2]; Group 2 Oral, water, individual rats
  % Bioavailability: 7.00% and 6.56% and 7.06%
[2]; Group 4 Oral, 20% Labrasol
  % Bioavailability Mean ± SD: 12.14 ± 2.29%
[2]; Group 4 Oral, 20% Labrasol, 6 hr
  AUC0→last Mean ± SD: 2.15 ± 0.41 Hr * ( ng/ml)
[2]; Group 4 Oral, 20% Labrasol, last time point 6 hr, individual rats
  AUC0→last: 1.6901 Hr * ( ng/ml) and 2.3145 Hr * ( ng/ml) and 2.4507 Hr * ( ng/ml)
[2]; Group 4 Oral, 20% Labrasol, individual rats
  % Bioavailability: 9.53% and 13.05% and 13.82%
[2]; Group 5 Oral, 5% Labrasol
  % Bioavailability Mean ± SD: 7.12 ± 1.37%
[2]; Group 5 Oral, 5% Labrasol, 6 hr
  AUC0→last Mean ± SD: 1.26 ± 0.24 Hr * ( ng/ml)
[2]; Group 5 Oral, 5% Labrasol, last time point 6 hr, individual rats
  AUC0→last: 1.4714 Hr * ( ng/ml) and 0.9971 Hr * ( ng/ml) and 1.3181 Hr * ( ng/ml)
[2]; Group 5 Oral, 5% Labrasol, individual rats
  % Bioavailability: 8.30% and 5.62% and 7.43%
[2]; Group 6 Oral, 5% TPGS + 5% Labrasol
  % Bioavailability Mean ± SD: 7.909 ± 0.84%
[2]; Group 6 Oral, 5% TPGS + 5% Labrasol, 6 hr
  AUC0→last Mean ± SD: 1.40 ± 0.15 Hr * ( ng/ml)
[2]; Group 6 Oral, 5% TPGS + 5% Labrasol, last time point 6 hr, individual rats
  AUC0→last: 1.3506 Hr * ( ng/ml) and 1.284 Hr * ( ng/ml) and 1.5688 Hr * ( ng/ml)
[2]; Group 6 Oral, 5% TPGS + 5% Labrasol, individual rats
  % Bioavailability: 7.62% and 7.24% and 8.85%
[2]; Group 7 Oral, 0.15 mM Quinidine 20 min before, then 20% Labrasol, 6 hr
  AUC0→last Mean ± SD: 1.81 ± 1.39 Hr * ( ng/ml)
[2]; Group 7 Oral, 0.15 mM Quinidine 20 min before, then 20% Labrasol, last time point 6 hr, individual rats
  AUC0→last: 3.3876 Hr * ( ng/ml) and 1.2912 Hr * ( ng/ml) and 0.7655 Hr * ( ng/ml)
[2]; Group 7 Oral, 0.15 mM Quinidine pretreatment then 20% Labrasol
  % Bioavailability Mean ± SD: 10.23 ± 7.82%
[2]; Group 7 Oral, 0.15 mM Quinidine pretreatment then 20% Labrasol, individual rats
  % Bioavailability: 19.10% and 7.28% and 4.32%
[3]; Jejunum, 5 mg/ml of drug in HEPES Buffer
  Papp: 3.84 ×10⁻⁶ cm/s
[3]; jejunum, 5 mg/ml of drug in HEPES Buffer containing 10% Labrasol
  Papp: 2.84 ×10⁻⁶ cm/s
[3]; jejunum, 5 mg/ml of drug in HEPES Buffer containing 20% Labrasol
  Papp: 3.48 ×10⁻⁶ cm/s
[3]; jejunum, 5 mg/ml of drug in HEPES Buffer containing 40% Labrasol
  Papp: 13.51 ×10⁻⁶ cm/s
[3]; jejunum, 100 mg/ml DTPA in HEPES buffer, 5% Gelucire 44/14 + 5% Labrasol
  Papp: 7.27 ×10⁻⁶ cm/s
[3]; jejunum, 100 mg/ml DTPA in HEPES buffer, 5% TPGS + 5% Labrasol
  Papp: 14.04 ×10⁻⁶ cm/s
[3]; jejunum, 100 mg/ml DTPA in HEPES buffer, 5% TPGS + 20% Labrasol
  Papp: 7.85 ×10⁻⁶ cm/s
[3]; jejunum, 100 mg/ml DTPA in HEPES buffer, 5% Tween 80 + 5% Capmul PG-8
  Papp: 3.61 ×10⁻⁶ cm/s
[3]; jejunum, 100 mg/ml DTPA in HEPES buffer, 5% Tween 80 + 5% Labrasol
  Papp: 11.61 ×10⁻⁶ cm/s
[3]; jejunum, 100 mg/ml DTPA in HEPES buffer, 5% Tween 80 and 5% Caproyl PGMC
  Papp: 2.75 ×10⁻⁶ cm/s
[3]; jejunum, 100 mg/ml DTPA in HEPES buffer, 5% Tween 80 and 5% Labrafil
  Papp: 2.83 ×10⁻⁶ cm/s
[3]; jejunum, 100 mg/ml DTPA in HEPES buffer, 10% Gelucire 44/14
  Papp: 6.57 ×10⁻⁶ cm/s
[3]; jejunum, 100 mg/ml DTPA in HEPES buffer, 10% Tween 80
  Papp: 5.43 ×10⁻⁶ cm/s
[3]; jejunum, 100 mg/ml DTPA in HEPES buffer, 20% Bile Salt
  Papp: 12.65 ×10⁻⁶ cm/s
[3]; jejunum, 100 mg/ml of drug in HEPES Buffer containing 10% Labrasol
  Papp: 6.29 ×10⁻⁶ cm/s
[3]; jejunum, 100 mg/ml of drug in HEPES Buffer containing 20% Labrasol
  Papp: 11.76 ×10⁻⁶ cm/s
[3]; jejunum, 100 mg/ml of drug in HEPES Buffer only
  Papp: 4.63 ×10⁻⁶ cm/s
[4]
  Papp: 2.8 ×10⁻⁶ cm/s
Rat colon
  Papp: 3.22 ×10⁻⁶ cm/s
